The record followed here is patent publication US20100108086A1, “TOBACCO AND TOBACCO PACKAGING MATERIAL FOR PREVENTING OR REDUCING TOBACCO-ASSOCIATED INJURY IN THE AERODIGESTIVE TRACT OF A SUBJECT” (Technion Research & Development Foundation Ltd, priority 2007, published 2010).

Series [1] has as its system oral peroxidase (OPO). Kind of series: Oral peroxidase (OPO) activity in saliva, NBS-SCN assay. It counts as biochemical, human. The note with it: for OPO activity in presence of aldehydes present in TS: 80 μM acrolein, 20 μM crotonaldehyde (FIG. 11).
Series [2] relates to lymphocytes. The experiment in a line: Lymphocyte survival, Trypan Blue exclusion assay. Conditions: for % survival of TS + saliva-treated lymphocytes, Mean: 1 mM GSH; for death rates at 80 minutes / lymphocyte survival rates after 20 minutes: both, human. It counts as cell-based, human. Here is the method:
Saliva collection: Saliva was collected from healthy subjects, 3 males and 3 females ranging from 21-47 years of age, under non-stimulatory conditions in a quiet room during the morning between 8 am and noon. Saliva collection was performed at least 1 h after eating by spitting into a recipient for 10 minutes, as previously described (43). Following collection, saliva was immediately centrifuged at 800×g for 10 min at 4° C. to remove cells and cell debris and the resulting supernatant was used for biochemical analyses.
(§1) Lymphocyte isolation: Blood from 10 consenting, healthy, non-smoking subjects, 5 males and 5 females ranging from 18-55 years of age, was drawn into EDTA-containing vacutainers. Lymphocytes were isolated by Ficoll-Hypaque (Sigma) gradient centrifugation according to the manufacturer's instructions and lymphocytes were suspended at 10^7 cells/ml PBS (Beit-Ha'emek Industries, Israel), and used immediately in experiments.
(§2) A reproducible vacuum was created in the flask and upon application of vacuum for 5 s, 80-100 ml of TS from the lit cigarette was drawn into the flask. […] Saliva treatment of lymphocytes was performed by suspending these in PBS supplemented with 30% (v/v) saliva. Following treatment with the TS of 0.5 cigarettes, flasks were incubated at 37° C. for 20 min in a metabolic shaker and subjected to a further 4 treatments with TS, as described above.
Measurement of lymphocyte survival: Lymphocyte viability was assessed by Trypan Blue exclusion assay.

Series [3] deals with lymphocytes. Kind of series: Western immunoblotting analysis of lymphocyte protein carbonylation. It counts as cell-based, human.
Excerpt: Western immunoblotting analysis of protein carbonylation: Salivary proteins were separated by SDS-PAGE using a 10% gel and electro-blotted onto nitrocellulose membranes, as previously described (14). The Oxyblot Kit (Intergen Co, Purchase N.Y.) was used with anti-dinitrophenyhydrazine (DNPH) antibodies to label carbonylated proteins. Protein carbonylation levels were then visualized by reacting labelled blots with a secondary HRP-conjugated anti-rabbit antibody followed by ECL detection of secondarily labelled proteins, as previously described (14).
as §1
as §2, with “Treatment of lymphocytes with TS in the presence of saliva: Exposure of lymphocytes to TS was carried out by attaching a Time cigarette (capable of removing particles>[…] in diameter) in which the filter tip was removed to a Cambridge filter which was combined with a vacuum system to aspirate gas-phase TS inside sealed 250 ml flasks containing lymphocytes suspended in 12-15 ml PBS, as previously described (14, 15). A” for “A”
Western immunoblotting analysis of lymphocyte protein carbonylation: Lymphocytes were washed twice in PBS following treatment by centrifugation at 2,000 rpm for 2 minutes to remove saliva and other components of the incubation medium. Lymphocytes were then centrifuged at 14,000 rpm for 1 minute and lysed by sonication for 10 seconds in lysis buffer containing 20 mM Tris pH 7.4, 1 mM EGTA, 1 mM PMSF, 50 μM NaVO4 and 50 mM NaF. Lysates were centrifuged at 14,000 rpm for 1 minute and supernatants were harvested for analysis. Carbonylation analysis was performed as described above.
(In general: In western blotting, separated proteins are transferred to a membrane and probed.)

Series [4] addresses T1, MPO (Homo sapiens, UniProt P05164).
T1 construct: purchased
T1 sequence (P05164 49-745): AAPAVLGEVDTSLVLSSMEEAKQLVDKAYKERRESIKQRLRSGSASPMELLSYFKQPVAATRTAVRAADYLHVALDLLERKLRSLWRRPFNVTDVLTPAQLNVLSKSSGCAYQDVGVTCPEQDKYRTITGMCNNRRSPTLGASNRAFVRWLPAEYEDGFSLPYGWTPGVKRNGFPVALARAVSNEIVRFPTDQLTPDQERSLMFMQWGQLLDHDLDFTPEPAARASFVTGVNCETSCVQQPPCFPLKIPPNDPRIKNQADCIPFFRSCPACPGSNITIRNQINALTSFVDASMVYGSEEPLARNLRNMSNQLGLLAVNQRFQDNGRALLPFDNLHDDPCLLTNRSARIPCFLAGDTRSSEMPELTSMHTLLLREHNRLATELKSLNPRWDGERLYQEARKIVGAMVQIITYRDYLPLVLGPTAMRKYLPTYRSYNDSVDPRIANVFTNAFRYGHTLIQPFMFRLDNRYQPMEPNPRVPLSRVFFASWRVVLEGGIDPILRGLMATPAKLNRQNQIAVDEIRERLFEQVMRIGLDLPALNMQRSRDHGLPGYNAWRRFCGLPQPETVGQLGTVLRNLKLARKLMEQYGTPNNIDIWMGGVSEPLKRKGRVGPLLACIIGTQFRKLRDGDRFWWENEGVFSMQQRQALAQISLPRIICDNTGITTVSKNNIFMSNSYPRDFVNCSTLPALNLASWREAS
Kind of series: Control MPO activity (commercial MPO) in presence of dapsone. The format is biochemical. Conditions: 150 μM dapsone. Here is the method: FIG. 7 is a data plot depicting the effect of increasing concentrations of dapsone (4-aminophenylsulfone) on OPO activity in TS-treated saliva. Abbreviations: NO.1, NO.2, NO.3, NO4 and NO.5 correspond to saliva from 5 different subjects and plasma corresponds to commercial MPO.
Analysis of OPO activity: OPO activity was measured according to the 2-nitrobenzoic-thiocyanate (NBS-SCN) assay, as previously described (20). Briefly, DTNB is reduced to NBS by addition of β-mercaptoethanol and decreases in NBS concentration by reaction with OSCN^−, a product of OPO, are monitored spectrophotometrically by measuring absorbance at 412 nm at pH 5.6 (18). One unit of enzyme activity was defined as the activity required to cleave 1 μmol of NBS/min at 22° C., using a molar extinction coefficient of 12,800 (20).
Thus, in order to determine which of the MPO or SPO activity components of OPO activity are lost as a result of exposure to TS, OPO activity in TS-treated saliva was measured in the presence of increasing concentrations of […] dapsone.

[5] abbreviates: TS + saliva, 1 mM agent, 80 minutes (FIG. 19).

For the compound `[Cl][Fe]([Cl])[Cl]` [FeCl3], the “inhibition of OPO activity on exposure of saliva” value in series [1] (1 mM ascorbate or 100 μM FeCl3, 2 h (FIG. 10)) is reported as “did not inhibit OPO activity”.
Turning to `N[C@@H](CCC(=O)N[C@@H](CS)C(=O)NCC(=O)O)C(=O)O` [GSH, L-γ-glutamyl-1-cysteine-glycine], the “effect on death rate of lymphocytes exposed to TS and saliva” value in series [2] is “partially prevented”. The “% survival of TS + saliva-treated lymphocytes, Mean” value in series [2] (20 minute treatment) worked out at 90.6%; in series [2] (80 minute treatment) it was 28.8%. For the same compound, the lymphocyte survival rate amounted to 82.3% in series [2] (GSH added in the presence of 20 μM crotonaldehyde, 20 minutes); 81.3% in series [2] (GSH added in the presence of 20 μM crotonaldehyde, 80 minutes); 93.3% in series [2] (GSH added in the presence of 80 μM acrolein, 20 minutes); 87.4% in series [2] (GSH added in the presence of 80 μM acrolein, 80 minutes); 93.3% in series [2] (GSH added in the presence of 2 mM acetaldehyde, 20 minutes); 93.6% in series [2] (GSH added in the presence of 2 mM acetaldehyde, 80 minutes). Also, the lymphocyte survival rate stood at 93.4% in series [2] (TS + saliva, 1 mM agent, 20 minutes (FIG. 19)) and 24.3% in series [2] (setting [5]). Moreover, the “loss of OPO activity in TS-treated saliva in the presence or absence of agent” value in series [1] (1 mM agent (FIG. 9)) is given as “similar”. Moreover, in series [3] (TS + saliva, 1 mM antioxidant, 20 minutes (FIG. 20)), the “protection assessed by lymphocyte protein carbonylation levels” value is “unique protection”. Also, in series [3] (aldehydes + 1 mM GSH, 20 min (FIG. 21)), the “protein carbonylation levels in aldehyde-treated lymphocytes” value was “protection”.
With `N#C[S-].[K+]` [KSCN, potassium thiocyanate], in series [1], the “protection against TS-induced loss of OPO activity” value is on record as “significant protection against loss of OPO activity”.
Take `CC(=O)N[C@@H](CS)C(=O)O` [NAC, N-acetylcysteine]: the “effect on death rate of lymphocytes exposed to TS and saliva” value in series [2] was “did not alter the death rate”.
Consider `C/C1=C2/[N-][C@H]([C@H](CC(N)=O)[C@@]2(C)CCC(=O)NC[C@@H](C)OP(=O)([O-])O[C@H]2[C@@H](O)[C@@H](n3cnc4cc(C)c(C)cc43)O[C@@H]2CO)[C@]2(C)N=C(/C(C)=C3N=C(/C=C4N=C1[C@@H](CCC(N)=O)C\4(C)C)[C@@H](CCC(N)=O)[C@]\3(C)CC(N)=O)[C@@H](CCC(N)=O)[C@]2(C)CC(N)=O.[Co+3].[OH-]` [OH—CO, hydroxocobalamin], for which, in series [1] (1 mM OH—CO, saliva treated 2 min with 1 mM KCN (FIG. 15)), the “prevention of KCN-associated loss of OPO activity” value is given as “completely prevent”. In addition, in series [1] (increasing amounts of OH—CO (0.5, 1, 2 mM, FIG. 14), 40 min after treatment with TS), the “prevention of loss of OPO activity in TS-treated saliva” value is given as “prevent, to a significant extent, the loss of OPO activity”. In addition, in series [1] (preincubation of saliva with OH—CO), the “prevention of TS- and KCN-associated loss of OPO activity” value is “could prevent both TS- and KCN-associated loss of OPO activity”.
Regarding `CC=O` [acetaldehyde], the “death rates at 80 minutes” value in series [2] was found to be 92.7%.
In the case of `C=CC=O` [acrolein], the lymphocyte survival rate worked out at 66.4% in series [2] (acrolein with saliva (second of the two 'respectively' values, order presumed)) and 57.9% in series [2] (acrolein without saliva (first of the two 'respectively' values, order presumed)). In addition, the “death rates at 80 minutes” value in series [2] is reported as 57.3%. Besides, the “lymphocyte survival rates after 20 minutes” value in series [2] worked out at 63.3%. The “OPO activity in presence of aldehydes present in TS” value in series [1] was “unaffected”. Also, the “lymphocyte protein carbonylation levels” value in series [3] (80 μM acrolein + saliva vs acrolein alone, 20 min (FIG. 22)) is recorded as “did not enhance carbonylation levels”.
Consider `O=C1O[C@H]([C@@H](O)CO)C(O)=C1O` [ascorbate], for which the lymphocyte survival rate in series [2] (ascorbate (1 mM) added to PBS containing iron as FeCl3 (90 μM), no saliva (FIG. 23, Column 8)) amounted to 77%; in series [2] (ascorbate (1 mM) added to saliva-containing medium without TS, 20 min (FIG. 23, column 6)) it was 78%.
On to `C/C=C/C=O` [crotonaldehyde], for which, in series [2], the “death rates at 80 minutes” value was found to be 75.3% and the “lymphocyte survival rates after 20 minutes” value amounted to 80.3%. Also, in series [1], the “OPO activity in presence of aldehydes present in TS” value was “unaffected”.
For `Nc1ccc(S(=O)(=O)c2ccc(N)cc2)cc1` [dapsone, 4-aminophenylsulfone], in series [1] (150 μM dapsone, TS-treated saliva (FIG. 7)), the “Loss of OPO activity” value is given as 60-85%. Besides, the “loss of OPO activity in the presence or absence of agent” value in series [1] (150 μM dapsone, TS-treated saliva containing ~40% MPO (FIG. 8)) is on record as “similar”. Also, in series [4], the “control MPO activity” value is on record as “unaffected”.
Regarding `CC(=O)N(O)CCCCCNC(=O)CCC(=O)N(O)CCCCCNC(=O)CCC(=O)N(O)CCCCCN` [deferoxamine], in series [2] (setting [5]), the lymphocyte survival rate was 23.7%.
`O=c1[nH]c(=O)c2[nH]c(=O)[nH]c2[nH]1` [uric acid]: the “lymphocyte protein carbonylation levels” value in series [3] (uric acid added to suspension medium instead of saliva, 10 or 100 μM, no TS (FIG. 18)) is on record as “reduced carbonylation levels”.
